This is an account of results in patent publication US10100030B2 (Kissei Pharmaceutical Co., Ltd., priority 2013, dated 2018).

Like-named read-outs stand apart in the source and are kept apart here.

For data set [1], the target named is T1, human NK1 receptor (Homo sapiens (Human), UniProt P25103). In words: Affinity for human NK1 receptor (125I-substance P receptor binding test). The note with it: membrane fraction of human NK1 receptor-expressing 293T cells; read-out: IC50 (concentration required for 50% inhibition of 125I-substance P binding). On the procedure: Affinity for Human NK1 Receptor
T1 sequence (P25103 whole entry): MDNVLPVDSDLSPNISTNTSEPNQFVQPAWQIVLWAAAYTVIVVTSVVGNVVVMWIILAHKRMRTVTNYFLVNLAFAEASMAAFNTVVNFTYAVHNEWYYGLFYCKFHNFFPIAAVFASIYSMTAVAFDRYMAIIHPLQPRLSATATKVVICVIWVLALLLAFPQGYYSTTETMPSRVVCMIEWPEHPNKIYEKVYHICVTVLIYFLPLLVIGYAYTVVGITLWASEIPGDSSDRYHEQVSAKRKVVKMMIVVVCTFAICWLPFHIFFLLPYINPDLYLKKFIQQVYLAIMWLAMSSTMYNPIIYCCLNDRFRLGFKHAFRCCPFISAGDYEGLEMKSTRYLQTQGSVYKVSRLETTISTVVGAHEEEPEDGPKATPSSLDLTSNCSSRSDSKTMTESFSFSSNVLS
(3) Measurement of Binding Affinity to Human NK1 Receptor
(3-1) Preparation of Membrane Fraction from Human NK1 Receptor-expressing Cells
Human NK1 receptor-expressing cells were prepared in a 175 cm^2 culture flask (Nippon Becton Dickinson). The formation of a complex of the human NK1 receptor expression plasmid and Lipofectamine 2000 was performed by calculating the culture area ratio and increasing the scale of the method described in the above 2-4 by the ratio. The human NK1 receptor-expressing cells were collected in a buffer solution for the membrane fraction preparation (50 mM Tris (Wako Pure Chemical). 120 mM sodium chloride (Wako Pure Chemical Industries), 5 mM potassium chloride (Wako Pure Chemical Industries), 1 mM ethylenediaminetetraacetic acid (Sigma), 0.002 mg/mL chymostatin (Peptide Institute), 0.04 mg/ bacitracin (Wako Pure Chemical Industries), 0.005 mg/mL phosphoramidon (Peptide Institute) and 0.5 mM phenylmethylsulfonyl fluoride (Wako Pure Chemical Industries), pH7.4) and centrifuged at 1,880 g for 10 minutes, and the cell sediment was suspended in the buffer solution for the membrane fraction preparation. After freezing and thawing the cells once, the cells were homogenized using a Dounce-type homogenizer (cooled on ice, 1000 rpm, 20 times). The homogenized cell suspension was centrifuged at 20,000 rpm for 10 minutes, and the supernatant was removed to obtain cell sediment. The cell sediment was suspended again in the buffer solution for the membrane fraction preparation and homogenized using a Dounce-type homogenizer (cooled on ice, 1000 rpm, 30 times). The cell suspension was centrifuged at 20,000 rpm for 10 minutes, and the supernatant was removed to obtain cell sediment. The same homogenization and centrifugation were repeated again, and final cell sediment was obtained. The final cell sediment was suspended in a buffer solution for the receptor binding test (50 mM Tris (Wako Pure Chemical Industries), 3 mM manganese chloride (Wako Pure Chemical Industries), 0.002 mg/mL chymostatin (Peptide Institute), 0.04 mg/bacitracin (Wako Pure Chemical Industries) and 0.02% bovine serum albumin (Sigma), pH 7.4), and the protein concentration was measured using BCA Protein Assay Kit (Pierce).
(3-2) Receptor Binding Test
The buffer solution for the receptor binding test was dispensed to the wells of a 96-well assay plate (Greiner) at 22.5 μL/well. DMSO solutions of a test compound, which were prepared at an 80-time higher concentration using 100% dimethyl sulfoxide (DMSO), were added to the wells at 2.5 μL/well (final concentrations of 1 nM to 100 nM), and the solutions were mixed. As a radiolabeled ligand, ^125I-substance P (Substance P, [^125I]Tyr^8-, PerkinElmer) was used. ^125I-substance P was diluted with the buffer solution for the receptor binding test to a concentration resulting in […] and added to the 96-well assay plate, and the solutions were mixed. The membrane fraction prepared from the human NK1 receptor-expressing cells was diluted with the buffer solution for the receptor binding test to a concentration resulting in 8 to 10 μg/well, suspended until the suspension became in such a homogenous state that the suspension could flow through as 27G injection needle smoothly and then added to the 96-well assay plate at 150 μL/well. Then, the plate was incubated at room temperature for 60 minutes while shaking the plate. The reaction solutions were suction-filtered. through a multiscreen 96-well filter plate (Millipore) which had been pre-treated with 0.3% polyethyleneimine, and the reaction was terminated by washing with a washing solution (50 mM Tris and 0.02% bovine serum albumin, pH 7.4) four times. The bottom of the microplate was dried at 60° C., and then 100 μL/well of MicroScint 20 (PerkinElmer) was dispensed to the wells. The top of the plate was sealed with TopSeal A (PerkinElmer), and the plate was shaken for 5 to 10 minutes. […]

Data set [2] deals with T2, CYP3A4 (Homo sapiens (Human), UniProt P08684).
T2 sequence (P08684 whole entry): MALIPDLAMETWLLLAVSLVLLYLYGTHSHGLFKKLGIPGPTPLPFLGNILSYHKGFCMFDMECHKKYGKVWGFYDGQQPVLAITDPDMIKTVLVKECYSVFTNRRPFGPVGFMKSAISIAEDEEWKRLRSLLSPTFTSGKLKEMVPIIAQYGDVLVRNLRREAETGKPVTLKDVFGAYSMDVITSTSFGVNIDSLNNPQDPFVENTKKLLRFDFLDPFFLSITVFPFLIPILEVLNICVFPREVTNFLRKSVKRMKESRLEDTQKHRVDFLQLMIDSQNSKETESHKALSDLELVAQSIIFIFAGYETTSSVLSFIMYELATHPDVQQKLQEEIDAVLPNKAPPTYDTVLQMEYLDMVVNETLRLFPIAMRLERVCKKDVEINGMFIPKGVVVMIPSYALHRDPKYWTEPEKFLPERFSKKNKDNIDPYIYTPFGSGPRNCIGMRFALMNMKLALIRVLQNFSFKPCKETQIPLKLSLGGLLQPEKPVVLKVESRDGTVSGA
Experimental: Enzyme reaction was performed by incubating in a potassium phosphate buffer solution (pH 7.4) containing 1 nM to 20 μM test compound, 3.2 mM magnesium chloride, 0.2 pmol human CYP3A4 (BD Biosciences), 0.5 mM reduced nicotinamide adenine dinucleotide phosphate (NADPH) and 3 μM Luciferin-IPA (Promega) at 37° C. for 10 minutes. The volume of the reaction solution was 50 μL/well. The 30-minute pre-incubation group was incubated at 37° C. for 30 minutes before adding the substrate, the Luciferin-IPA solution (12.5 μL/well). At the end of the enzyme reaction, 50 μL/well of a Luciferin detection reagent (Promega) was added to the wells, and the plate was left at room temperature for 20 minutes. Then, the emission intensities were measured with Infinite M1000 (TECAN). The enzyme activities (%) relative to the value of the group to which the test compound was not added were calculated.
In data set [3] the target is T1, human NK1 receptor. In words: Inhibitory effect on human NK1 receptor (substance P-induced increase in intracellular calcium concentration). The note with it: HEK-293T; substance P 1 μM, compound 0.1 μM; human NK1 receptor-expressing 293T cells; read-out: SPRR (Substance P-Response Remaining). Format: cell-based. The procedure: Inhibitory Effect on Human NK1 Receptor
(1) Preparation of Human NK1 Receptor-expressing Cells
Human NK1 receptor-expressing cells were prepared by the same methods as those described in 2-3 and 2-4 of Test Example 1.
(2) Study on Inhibitory Effect on Increase in Intracellular Calcium Concentration
The human NK1 receptor-expressing cells were washed with 300 μL/well of a washing solution (20 mM HEPES/Hank's Balanced Salt Solution (HBSS) […]). A fluorescent calcium indicator (Fluo-4 Direct Calcium Assay Kit, Life Technologies, containing 0.42 mM probenecid and 0.1% bovine serum albumin, prepared according to the protocol of the product) was added to the wells at 150 μL/well, and the plate was incubated at 37° C. for 30 minutes in an incubator. Then, DMSO solutions of a test compound, which were prepared at an 80-time higher concentration using 100% dimethyl sulfoxide (DMSO), were added to the wells at 2.5 μL/well (final concentrations of 0.1, 1 and 10 μM), and the solutions were mixed. Then, the plate was further incubated at 37° C. for 30 minutes in an incubator. After 30 minutes, the intracellular calcium concentrations were measured immediately.
The intracellular calcium concentrations were each measured as a fluorescent signal using FDSS (registered trademark) 7000 (Hamamatsu Photonics). A substance P (Peptide Institute, Inc.) solution which was prepared at 0.4 μM or 4 μM using an assay buffer (20 mM HEPES/Hank's Balanced Salt Solution (HBSS) pH 7.3, containing 0.1% bovine serum albumin) was added automatically to each well at 50 μL/well (final concentration of 0.1 or 1 μM) 10 seconds after starting reading, and the fluorescent signal was measured up to 120 seconds.
The intracellular calcium concentration (%) of the cells to which a test compound was added was calculated by the equation below, where the fluorescent signal of the group to which the vehicle (DMSO) was added was regarded as 100%, and the fluorescent signal before the addition of substance P was regarded as 0%. Intracellular calcium concentration(%)=(Fluorescent signal of test compound addition group)/(Fluorescent signal of vehicle addition group)×100
The intracellular calcium concentration (%) calculated was regarded as the remaining agonist activity of substance P (Substance P-Response Remaining: SPRR). In the table, Ex. No. means the Example number. SPRR (%) is the value obtained when the concentration of substance P was 1 μM and the concentration of the compound was 0.1 μM.
(A change in cytosolic calcium serves as a functional read-out for many receptors and channels.)

The next data set has as its target NK1 receptor (Meriones unguiculatus (Mongolian jird) (Gerbillus unguiculatus), UniProt Q5DUB1). Description: Effect on GR73632-induced foot-tapping. Format: in vivo. Conditions: 0.3 mg/kg from the jugular vein, GR73632 after four hours, male gerbil. The procedure:
(1) Effect on Foot-tapping
(§1) A male gerbil (Japan SLC) was anesthetized with isoflurane, and 0.3 mg/kg of a test compound was administered from the jugular vein. After four hours, GR73632 (5 pmol/5 μl), which is an NK1 receptor agonist, was administered into the cerebral ventricle at the part 1 mm lateral to and 4.5 mm below the bregma in the head, under anesthesia with isoflurane. After the administration, the gerbil was moved to an observation cage, and the foot-tapping period during five minutes after the recovery of the righting reflex was measured. The foot-tapping inhibition rate (%) of each test compound was calculated by the following equation. Foot-tapping inhibition rate (%)={1−(Foot-tapping period when test compound was administered)/(Foot-tapping period when solvent was administered)}×100 (2) Measurement of Drug Concentrations
(§2) In the table, Ex. No. means the Example number. Inhibition (%) is the foot-tapping inhibition rate, and Conc. (nM) is the drug concentration in the brain.

Data set [4] in a line: Measurement of drug concentrations in the brain after foot-tapping test. Format: in vivo. Conditions: male; 0.3 mg/kg iv, after foot-tapping was finished, gerbil brain; read-out: Conc. (drug concentration in the brain). The procedure:
as §1
After foot-tapping was finished, laparotomy was performed immediately under anesthesia with ether, and a blood sample was taken from the abdominal vena cava. At the same time, the brain was extracted. Through a quantitative analysis using liquid chromatography-mass spectrometry (LC/MS), the concentrations of the test compound in the plasma and the brain were measured.
as §2

Data set [5] addresses T2, CYP3A4. Conditions: background literature; cited from earlier work.

Chain of NK1 receptor (Q5DUB1 whole entry): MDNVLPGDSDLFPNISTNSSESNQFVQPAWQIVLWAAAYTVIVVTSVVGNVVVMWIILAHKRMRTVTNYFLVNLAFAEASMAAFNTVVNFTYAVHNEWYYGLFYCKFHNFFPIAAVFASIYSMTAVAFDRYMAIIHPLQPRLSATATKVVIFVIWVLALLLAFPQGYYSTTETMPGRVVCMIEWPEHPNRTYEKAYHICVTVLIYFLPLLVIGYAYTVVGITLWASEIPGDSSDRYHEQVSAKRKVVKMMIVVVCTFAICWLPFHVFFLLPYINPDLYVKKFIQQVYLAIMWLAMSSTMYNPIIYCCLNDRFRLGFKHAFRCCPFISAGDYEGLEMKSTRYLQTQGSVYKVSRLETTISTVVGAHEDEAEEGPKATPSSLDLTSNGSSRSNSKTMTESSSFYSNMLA

As for `Cc1cc(F)ccc1-c1cc(N2CCC([C@@H](C)C(=O)O)CC2)ncc1N(C)C(=O)C(C)(C)c1cc(C(F)(F)F)cc(C(F)(F)F)c1` [Example 12, (R)-2-[5′-{[2-(3,5-Bistrifluoromethylphenyl)-2-methylpropionyl]methylaminol}-4′-(4-fluoro-2-methylphenyl)-3,4,5,6-tetrahydro-2H-[1,2]bipyridinyl-4-yl]propionic acid], the IC50 was 7.44 nM at human NK1 receptor [1] and 4600 nM against CYP3A4 [2].
As for `Cc1cc(F)ccc1-c1cc(N2CCC(C(C)C(=O)O)CC2)nc(C#N)c1N(C)C(=O)C(C)(C)c1cc(C(F)(F)F)cc(C(F)(F)F)c1` (stereo not drawn) [Example 8], the IC50 at human NK1 receptor [1] worked out at 2.25 nM; on CYP3A4 [2] (human, 10 min, pH 7.4), 1400 nM. In addition, at human NK1 receptor [3], the remaining activity at 0.1 µM was found to be 69%. For the same molecule, at NK1 receptor, the “Inhibition (foot-tapping inhibition rate)” value is on record as 100%. Further, in data set [4], the concentration at 4 h was 213 nM.
With `CC(=O)N1CCN([C@H]2CCN(C(=O)N(C)[C@H](C)c3cc(C(F)(F)F)cc(C(F)(F)F)c3)[C@@H](c3ccc(F)cc3C)C2)CC1` [casopitant], on CYP3A4 [5], the “inhibitory effect on CYP3A4 (reported)” value is listed as “inhibitory effect on CYP3A4”.
Consider `Cc1ccccc1-c1cc(N2CCN(C)CC2)ncc1N(C)C(=O)C(C)(C)c1cc(C(F)(F)F)cc(C(F)(F)F)c1` [netupitant], for which, at CYP3A4 [5], the “inhibitory effect on CYP3A4 (reported)” value is “inhibitory effect on CYP3A4”.
